≈ marks a conversion by molar mass, not a printed value. Each block holds one compound with its values, some of them ahead of it.
Experiments:
[1] = Solubility in aqueous formulations in comparison to other succinate prodrugs; assay type: physicochemical; conditions: pH 7.4, aqueous buffer, thermodynamic from solid; PBS pH7.4
Experimental: Solubility of Compound 1 in aqueous formulations in comparison to other succinate prodrugs was assessed by dissolving solid material in aqueous formulations and measuring the quantity in solution by HPLC (−MS). […] In many cases the max solubility of other prodrugs was lower than 100 uM. See Table 21 for example solubility data in PBS pH7.4 for other succinate prodrugs.

[2] = Caco-2 bioavailability in vitro assay (apparent permeability); assay type: in vitro ADME; conditions: human; Caco-2, apical to basolateral, 0.01 mM, pH 7.4, 1 h, 37° C.
Experimental: The cell penetrance and potential for oral bioavailability of Compound 1 was tested using a standard caco-2 bioavailability in vitro assay (in brief, confluent Caco-2 cells (L1, A. P., 1992; Grass, G. M; et al., 1992, Volpe, D. A., et al., 2001) in a 24 well Corning Costar Transwell format were provided by In Vitro Technologies Inc. (IVT Inc., Baltimore, Md., USA). The apical chamber contained 0.15 mL Hank's balanced buffer solution (HBBS) pH 7.4, 1% DMSO, 0.1 mM Lucifer Yellow. The basal chamber contained 0.6 mL HBBS pH 7.4, 1% DMSO. Controls and tests were incubated at 37° C. in a humidified incubator, shaken at 130 rpm for 1 h. Lucifer Yellow permeates via the paracellular (between the tight junctions) route only, a high Apparent Permeability (Papp) for Lucifer Yellow indicates cellular damage during assay and all such wells were rejected. Propranolol (good passive permeation with no known transporter effects) & acebutalol (poor passive permeation attenuated by active efflux by P-glycoprotein) were used as reference compounds. Compounds were tested in a uni- and bi-directional format by applying compound to the apical or basal chamber (at 0.01 mM). Compounds in the apical or basal chambers were analysed by HPLC-MS. Results were expressed as Apparent Permeability, Papp, (nm/s), in comparison to other succinate prodrugs, including a number from WO2015/155231.

[3] = Solubility of batches of different crystallinity; assay type: physicochemical
Experimental: Two batches of Compound 1 were generated with different crystallinity. Batch 2 had higher crystallinity than Batch 3, which is regarded as having a higher degree of amorphous Compound 1-Batch 2 is therefore regarded as a more crystalline batch, whereas Batch 3 is regarded as a more amorphous batch. The methods used are discussed in this document.
A sample of the more amorphous Compound 1 batch 3 was added to PBS or water to a final concentration of 258 mg/mL and sonicated for 10 minutes, then shaken for 30 minutes.
A sample of the more crystalline Compound 1 batch 2 was added to HPLC-grade water (Fisher) to a final concentration of 30 mg/mL and sonicated for 10 minutes, then shaken for 30 minutes.
A sample of the more crystalline Compound 1 batch 2 was added to HPLC-grade water (Fisher) to a final concentration of 52 mg/mL and sonicated for 20 minutes, then shaken for 1 hour.
A sample of the more crystalline Compound 1 batch 2 was added to HPLC-grade water (Fisher) to a final concentration of […] and sonicated for 20 minutes, then shaken for 1.5 hours.

[4] = Kinetic solubility (turbidity at 620 nm, dissolution rate constant); assay type: physicochemical; conditions: dissolution in PBS at 5° C., 460 mg/ml final concentration, 3 mins
Experimental: Solid Compound 1 Batches s3, s12-17 (˜80 mg) were added to wells of a flat clear bottom 96 well plate. PBS at 5° C. was added to give a 460 mg/ml final concentration of 01-354 for all batches. After addition of the PBS, the plate was agitated for 10 s then immediately analysed for turbidity at 620 nm in real time for 3 mins by an Epoch Microplate Spectrophotometer (BioTek). A rate constant for the dissolution was calculated from the exponential decay fit of the recorded data.

[5] = Aqueous formulations of Compound 1 (water, PBS, saline), concentration by HPLC; assay type: physicochemical; conditions: for Calculated concentration by HPLC: 50% w/v in 100 mM PBS pH 7.4; for Calculated Conc.: tap water, target conc. 400 mg/ml; for 400 mg Compound in 0.7 ml Water, Measured Conc.: 400 mg in 0.7 ml
Experimental: Formulation Protocol • 1. Weigh out the required amount of Compound 1 then add the required amount of excipient (0.9% w/v saline, 100 mM PBS pH 7.4, water) to the solid Compound 1 to give the required mg/ml concentration of Compound 1. For example, for a 400 mg/ml formulation of Compound 1 in water, weigh out 400 mg of Compound 1 and add 0.7 ml of water. • 2. Sonicate the solution for 10 mins and then shake for 20 mins to ensure that Compound 1 is fully dissolved. • 3. The solution can be centrifuged (13000 rpm, 10 mins) to remove any particulates if required. • 4. The solution can be sterile filtered if required.
˜500 mg of compound was weighed into a vial, ˜500 μl 100 mM PBS pH 7.4 added and the vial was sonicated for 10 mins then shaken for 20 mins. A sample was then removed, diluted 1/2000 and the concentration calculated by HPLC analysis.
Compound 1 batch 3 was heated in an oven to 60° C. for 20 mins, at which point it became a translucent pale-yellow liquid. 100 mM PBS pH 7.4 (20% v/v) was added and the solution was mixed for 20 mins on a shaker. […] The solution was placed at 4° C. for 72 hours.
Method: • 1. Saline (0.9% w/v) was added to Compound 1 batch 11 in different amounts then sonicated for 10 mins—the samples remained slightly cloudy • 2. The samples were shaken for 30 mins at which point the solutions became translucent • 3. The solutions were diluted for HPLC analysis

[6] = Stability in purified (HPLC grade) or non-purified (tap) water; assay type: physicochemical; conditions: 1 mg/ml, room temperature
Experimental: A side-by-side experiment of the stability of Compound 1 in ‘purified’ HPLC grade water (Fisher Scientific) and ‘non-purified’ tap water was set up. In brief, 1 mg/mL solutions of Compound 1 were generated in ‘purified’ HPLC grade water (Fisher Scientific) and ‘non-purified’ tap water. These were incubated at room temperature for up to 10 days. Concentration and purity of Compound 1 was assessed over time by HPLC in comparison to a standard (AUC of 8.21 RT peak at 230 nm for calculated concentration and AUC of Compound 1 peak vs impurities for purity analysis). Data presented is the average of two samples.

[7] = tested on: human peripheral blood cells; assay: Metformin effect on mitochondrial function and lactate production of human blood cells; assay type: cell-based
Source text: As mentioned above, increased lactate plasma levels are often observed in patients treated with drugs that may have mitochondrial-related side effects.

Structure (SMILES): CCN(CC)C(=O)[C@H](CSC(=O)CCC(=O)OC)NC(C)=O [B]
- Papp A→B at 1 h, 0.01 mM [2]: 0.192 ×10⁻⁶ cm/s

Structure (SMILES): COC(=O)CCC(=O)SCCNC(C)=O [Batch 2, Methyl 3-[(2-acetylaminoethylthio)carbonyl]propionate]
- concentration reached ([3]; HPLC-grade water, added to 30 mg/mL, sonicated 10 minutes, shaken 30 minutes): 17000 µg/mL
- concentration reached ([3]; HPLC-grade water, added to 52 mg/mL, sonicated 20 minutes, shaken 1 hour): 52000 µg/mL
- concentration reached ([3]; HPLC-grade water, added to 2000 mg/mL, sonicated 20 minutes, shaken 1.5 hours): 850000 µg/mL
- solubility at 1.5 h ([3]; HPLC-grade water, water, thermodynamic from solid, more crystalline Compound 1, read-out: water solubility): ≥ 850 mg/mL

Structure (SMILES): COC(=O)CCC(=O)SCCNC(C)=O [Batch 3, Methyl 3-[(2-acetylaminoethylthio)carbonyl]propionate]
- solubility at 30 min ([3]; PBS or water, water, thermodynamic from solid, PBS or water, added to 258 mg/mL, sonicated 10 minutes, shaken 30 minutes, read-out: concentration reached): ≥ 258 mg/mL
- Rate constants, k [4]: 0.014 s⁻¹
- Calculated concentration by HPLC [5]: 535 mg/mL
- appearance of liquid formulation ([5]; batch 3 melted at 60° C., 100 mM PBS pH 7.4 (20% v/v) added, 72 hours at 4° C.): remained a translucent liquid
- Calculated Conc. [5]: 381 mg/mL
- 400 mg Compound in 0.7 ml Water, Measured Conc. [5]: 381 mg/mL
- Calculated Conc. ([6]; HPLC grade water, day 0): 1.02 mg/mL
- Purity ([6]; HPLC grade water, day 0): 99.0%
- Calculated Conc. ([6]; HPLC grade water, day 3): 1.04 mg/mL
- Purity ([6]; HPLC grade water, day 3): 98.8%
- Calculated Conc. ([6]; HPLC grade water, day 5): 1.03 mg/mL
- Purity ([6]; HPLC grade water, day 5): 99.0%
- Calculated Conc. ([6]; HPLC grade water, day 6): 1.01 mg/mL
- Purity ([6]; HPLC grade water, day 6): 99.0%
- Calculated Conc. ([6]; tap water, day 0): 1.06 mg/mL
- Purity ([6]; tap water, day 0): 98.5%
- Calculated Conc. ([6]; tap water, day 3): 0.98 mg/mL
- Purity ([6]; tap water, day 3): 95.7%
- Calculated Conc. ([6]; tap water, day 5): 0.93 mg/mL
- Purity ([6]; tap water, day 5): 94.4%
- Calculated Conc. ([6]; tap water, day 6): 0.89 mg/mL
- Purity ([6]; tap water, day 6): 93.3%
- Calculated Conc. ([6]; tap water, day 10): 0.83 mg/mL
- Purity ([6]; tap water, day 10): 93.0%

Structure (SMILES): COC(=O)CCC(=O)SCCNC(C)=O [Batch 12, Methyl 3-[(2-acetylaminoethylthio)carbonyl]propionate]
- Rate constants, k [4]: 0.022 s⁻¹
- Calculated Conc. [5]: 378 mg/mL
- 400 mg Compound in 0.7 ml Water, Measured Conc. [5]: 378 mg/mL

Structure (SMILES): COC(=O)CCC(=O)SCCNC(C)=O [Batch 14, Methyl 3-[(2-acetylaminoethylthio)carbonyl]propionate]
- Rate constants, k [4]: 0.011 s⁻¹
- Calculated Conc. [5]: 366 mg/mL
- 400 mg Compound in 0.7 ml Water, Measured Conc. [5]: 366 mg/mL

Structure (SMILES): COC(=O)CCC(=O)SCCNC(C)=O [Batch 15, Methyl 3-[(2-acetylaminoethylthio)carbonyl]propionate]
- Rate constants, k [4]: 0.074 s⁻¹
- 400 mg Compound in 0.7 ml Water, Measured Conc. [5]: 414 mg/mL

Structure (SMILES): COC(=O)CCC(=O)SCCNC(C)=O [Batch 17, Methyl 3-[(2-acetylaminoethylthio)carbonyl]propionate]
- Rate constants, k [4]: 0.111 s⁻¹

Structure (SMILES): CC(=O)NCCSC(=O)CCC(=O)OCC(C)(C)C [E]
- Papp A→B at 1 h, 0.01 mM [2]: < 0.021 ×10⁻⁶ cm/s

Structure (SMILES): CCOC(=O)CCC(=O)SC(C)CNC(C)=O (stereo not drawn) [G]
- Papp A→B at 1 h, 0.01 mM [2]: 0.087 ×10⁻⁶ cm/s

Structure (SMILES): O=C1CNC(=O)[C@H](CSC(=O)CCC(=O)SC[C@@H]2NC(=O)CNC2=O)N1 [HI]
- Papp A→B at 1 h, 0.01 mM [2]: 0.262 ×10⁻⁶ cm/s

Structure (SMILES): CC(=O)NCC(C)SC(=O)CCC(=O)OCC(C)(C)C (stereo not drawn) [L]
- Papp A→B at 1 h, 0.01 mM [2]: 0.016 ×10⁻⁶ cm/s

Structure (SMILES): CCNC(=O)[C@H](CSC(=O)CCC(=O)SC[C@H](NC(=O)CC)C(=O)N(CC)CC)NC(=O)CC [M]
- Papp A→B at 1 h, 0.01 mM [2]: 0.097 ×10⁻⁶ cm/s

Structure (SMILES): CN(C)C(=N)N=C(N)N [Metformin]
- mitochondrial function at Complex I ([7]; human peripheral blood cells, concentrations relevant for metformin intoxication): inhibits mitochondrial function of human peripheral blood cells at Complex I in a time- and dose-dependent fashion
- lactate production ([7]; intact platelets, over time): significant increase in lactate production

Other lines, results leading:

- solubility [1]: 52 µM (≈ 13.6 µg/mL)
Structure (SMILES): CC(OC(=O)CCC(=O)O)OC(=O)CCC(=O)O [A, reference compound]

- Papp A→B at 1 h, 0.01 mM [2]: 0.313 ×10⁻⁶ cm/s
Structure (SMILES): CCN(CC)C(=O)[C@H](CSC(=O)CCC(=O)OC(C)C)NC(C)=O [A]

- Calculated concentration by HPLC [5]: 526 mg/mL
Structure (SMILES): COC(=O)CCC(=O)SCCNC(C)=O [Batch 4, Methyl 3-[(2-acetylaminoethylthio)carbonyl]propionate]

- Calculated concentration by HPLC [5]: 531 mg/mL
Structure (SMILES): COC(=O)CCC(=O)SCCNC(C)=O [Batch 5, Methyl 3-[(2-acetylaminoethylthio)carbonyl]propionate]

- Calculated concentration by HPLC [5]: 543 mg/mL
Structure (SMILES): COC(=O)CCC(=O)SCCNC(C)=O [Batch 6, Methyl 3-[(2-acetylaminoethylthio)carbonyl]propionate]

- Rate constants, k [4]: 0.013 s⁻¹
- Calculated Conc. [5]: 395 mg/mL
- 400 mg Compound in 0.7 ml Water, Measured Conc. [5]: 395 mg/mL
Structure (SMILES): COC(=O)CCC(=O)SCCNC(C)=O [Batch 13, Methyl 3-[(2-acetylaminoethylthio)carbonyl]propionate]

- Rate constants, k [4]: 0.055 s⁻¹
- 400 mg Compound in 0.7 ml Water, Measured Conc. [5]: 435 mg/mL
Structure (SMILES): COC(=O)CCC(=O)SCCNC(C)=O [Batch 16, Methyl 3-[(2-acetylaminoethylthio)carbonyl]propionate]

- Papp A→B at 1 h, 0.01 mM [2]: 0.128 ×10⁻⁶ cm/s
Structure (SMILES): CCOC(=O)CCC(=O)SCCNC(C)=O [C]

- Papp A→B at 1 h, 0.01 mM [2]: 0.142 ×10⁻⁶ cm/s
Structure (SMILES): CC(=O)NCC(C)SC(=O)CCC(=O)OC(C)C (stereo not drawn) [D]

- Papp A→B at 1 h, 0.01 mM [2]: 0.145 ×10⁻⁶ cm/s
Structure (SMILES): COC(=O)CCC(=O)SC(C)CNC(C)=O (stereo not drawn) [F]

- Papp A→B at 1 h, 0.01 mM [2]: 0.135 ×10⁻⁶ cm/s
Structure (SMILES): CC(=O)NCCSC(=O)CCC(=O)OC(C)C [J]

- Papp A→B at 1 h, 0.01 mM [2]: 0.168 ×10⁻⁶ cm/s
Structure (SMILES): CCOC(=O)CCC(=O)SC[C@H](NC(C)=O)C(=O)N(CC)CC [K]

— patent US11565998B2, “Succinate prodrug, compositions containing the succinate prodrug and uses thereof” (ABLIVA AB, priority 2019, dated 2023)
